In turn, `COc1cc(C(=O)NC=NC(=O)ON(c2ccc(C)c(NC(=O)c3ccc(C=Cc4ccccc4)cc3)c2)C(C)(C)C)cc(OC)c1OC` gave a melting point of 166 °C.

The compound `CC(C)(C)OC(=O)Nc1ccc(F)c(F)c1C(=O)O` registered a melting point of 160 °C.

Take `CCOc1cc(-c2nnc3c4ccccc4c(OCc4nc[nH]n4)nn23)no1`: the melting point fell in the range of 240 to 243 °C.

`Cc1cc(I)ccc1NC(=S)N(C)N` yielded a melting point of 160 to 161 °C.

For `CC(=O)c1ccc2cc(N3CCNCC3)ccc2c1`, the melting point was in the range of 170 to 172 °C.

For `Nc1nnc2c3c(c(N4CCCC4)nn12)CCCC3`, the melting point fell in the range of 243 to 244 °C.

The compound `C#CCn1cc(F)c(SC)nc1=O` registered a melting point of 101 to 102 °C.

Regarding `CCc1c(-c2ccc(O)cc2)c2ccc3ccc(CO)c1n32`, the melting point lay in the range of 154 to 156 °C.

The compound `O=C1CCC(C(=O)O)C(=O)N1` (stereo unspecified) displayed a melting point of 116 to 118 °C.

With `O=C(CCCCCCNC(=O)c1cn2c3c(cccc13)CCC2)NO`, the melting point was in the range of 205 to 206 °C.

In turn, `CC(C)(CCc1ccc(NC=NO)cc1)CN1CCCC1` gave a melting point of 120 to 122 °C.

Compound `CCCCCCCCCCCCCCCCCCOc1ccc(C(=O)C(=O)OCC)cc1` showed a melting point of 46 to 48 °C.

In the case of `CCc1c(Cl)c(CC)c(-c2c(O)c(C)nn(C)c2=O)c(CC)c1Cl`, the melting point lay within 266 to 267 °C.

With `CS(=O)(=O)OCCc1ccc(-c2cccnc2)cc1`, the melting point is 66 to 68 °C.

For `CNC(=O)OC(Cn1cncn1)c1ccc(Cl)cc1Cl` (stereo unspecified), the melting point was found to be 204 °C.

`CCOC(=O)CCCCn1c(C(=O)NCc2nnc(C)n2-c2sc(CC)cc2C(=O)c2ccccc2Cl)cc2ccccc21` showed a melting point of 85 to 87 °C.

With `CCOCCn1c(N2CCCN(CCC3(c4ccc(OC)c(OC)c4)CCN(C(=O)c4cc(OC)c(OC)c(OC)c4)C3)CC2)nc2ccccc21` (stereo unspecified), the melting point is 90 to 100 °C.

For `CNC(=O)N(O)CCOc1ccc2c(c1)CCN(CCCc1ccccc1)C2=O`, the melting point was 138 to 139 °C.

Regarding `O=C(CS(=O)Cc1ccco1)C12CC3CC(CC(C3)C1)C2` (stereo unspecified), the melting point lay within 75 to 79 °C.

Take `COc1ccc(-c2nc(CC(=O)O)c(-c3ccco3)o2)cc1`: the melting point lay within 177 to 178 °C.

On to `CC(=O)Cn1c(Oc2ccc(-n3c4ncccc4n4ccnc34)cc2)nc2ccccc21`, for which the melting point was in the range of 189 to 192 °C.

Turning to `Cc1noc([C@@H](Cc2ccccc2)NC(=O)[C@@H](Cc2ccc3ccccc3c2)NC(=O)OC(C)(C)C)n1`, the melting point fell in the range of 148 to 150 °C.

Compound `Cn1nc(-c2ccc(S(C)(=O)=O)cc2)c(-c2ccc(F)cc2)c1C(F)(F)F` showed a melting point of 166 to 169 °C.

For the compound `Cc1nn2ccccc2c1C(=O)c1cccnc1`, the melting point lay in the range of 89 to 90 °C.

The compound `COCc1c(C(=O)OCCO)ncc2[nH]c3ccc(OCc4ccccc4)cc3c12` showed a melting point of 165 to 167 °C.

Take `CCCCOc1ccc(S(=O)(=O)C2(C(=O)O)CCN(Cc3cccc(OC)c3)CC2)cc1`: the melting point turned out to be 175 °C.

Turning to `OCc1c(Br)c(Br)c(Br)c(CO)c1Br`, the melting point fell in the range of 248 to 252 °C.

As to `CCOC(=O)c1cn(C2CC2)c2c(C)c(N3CCN(C(=O)OCC)CC3)c(F)cc2c1=O`, the melting point fell in the range of 200 to 202 °C.

For the compound `COc1c(-c2ccc(S(C)(=O)=O)cc2)cnn(-c2cccc(Cl)c2)c1=O`, the melting point fell in the range of 112 to 114 °C.

`O=C(NCCO)c1cccc(-c2cccc3c2CN(Cc2cccc(C(F)(F)F)c2)C3=O)c1` returned a melting point of 148 to 149 °C.

Regarding `O=C(NCCCN1CCOCC1)Nc1nc2ccc(OCc3c(Cl)cccc3Cl)cc2s1`, the melting point is 162 to 166 °C.

For `O=[N+]([O-])c1ccc2nc(CCCCCCCCc3nc4ccc([N+](=O)[O-])cc4[nH]3)[nH]c2c1`, the melting point lay in the range of 135 to 137 °C.

For `O=C1CCC(Cc2ccc(Cl)cc2)N1` (stereo unspecified), the melting point was in the range of 95 to 98 °C.

`CN(C)c1ccc(CC(=O)Nc2cc(CC3SC(=O)NC3=O)ccc2O)cc1` (stereo unspecified): the melting point fell in the range of 216 to 218 °C.

In turn, `CC(C)C[C@H](NC(=O)OC(C)(C)C)[C@@H]1CCC(=O)O1` gave a melting point of 75 to 77 °C.

`COC(=O)C=C(Nc1cc(CCO)c([N+](=O)[O-])cc1OCc1ccccc1)C(F)(F)F` had a melting point of 72 to 74 °C.

`Clc1ccc(-c2ncoc2-c2ccncc2)cc1Cl` returned a melting point of 142 °C.

`Cc1oc(-c2ccccc2)nc1COc1ccc2oc(CCCc3nnn[nH]3)cc2c1` displayed a melting point of 136 to 137 °C.

In the case of `O=[N+]([O-])c1cc2c(c3c([N+](=O)[O-])cccc13)C(CCl)CN2` (stereo unspecified), the melting point fell in the range of 130 to 131 °C.

As to `CCCc1cccc(N2CC(=O)NC(=O)N2)c1`, the melting point was in the range of 188 to 190 °C.

In turn, `COc1c(C)c(C)c2c(c1C)C(C(=O)O)C(C)(C)O2` (stereo unspecified) yielded a melting point of 185 to 187 °C.

`COc1ccc(NS(=O)(=O)c2cc(S(=O)(=O)Nc3ccc(OC)cc3C)c3cc(O)ccc3c2)c(C)c1` gave a melting point of 211 to 213 °C.

As to `COC(=O)Nc1cccc(C)c1CNc1cccn2c(CO)c(C)nc12`, the melting point was in the range of 170 to 172 °C.

`Cc1nc(C)c(C(C)(O)c2ccoc2)o1` (stereo unspecified): the melting point was in the range of 93 to 95 °C.

`CCCCc1ncc(CNC(Cc2ccccc2)C(=O)O)n1Cc1ccccc1Cl` (stereo unspecified) returned a melting point of 141 to 143 °C.

Consider `COc1ccccc1-c1c(C#N)nn(-c2c(Cl)cc(C(F)(F)F)cc2Cl)c1N`, for which the melting point came out at 193 °C.

Turning to `CC(C)c1ccc(N)c(C(=O)NCC2CCN(C(c3ccccc3)c3ccccc3)CC2)c1`, the melting point is 114 to 116 °C.

`CN(C=O)c1ccc(Cl)cc1C(=O)c1ccccc1` returned a melting point of 93.5 to 94.5 °C.

For the compound `O=C(c1ccccc1)c1ccc([N+](=O)[O-])c(C(=O)O)c1`, the melting point amounted to 169 °C.

For `CC(C)C(=O)Nc1cn(-c2cncc(F)c2)nc1C=O`, the melting point was 140 to 142 °C.

Compound `CC(C)C[C@H](NC(=O)[C@H](Cc1ccccc1)NC(=O)OCc1ccccc1)C(=O)N[C@@H](C(C)C)[C@@H](O)c1c(-c2ccccc2)c1=O` showed a melting point of 128 to 130 °C.

`O=c1cc(-c2ccc(OCc3ccccc3)c(OCc3ccccc3)c2)oc2cc(OCCBr)ccc12` registered a melting point of 167 to 168 °C.

`CC(C)(C)c1ccc(S(=O)(=O)Nc2cc(OCCO)ncn2)cc1`: the melting point was in the range of 169 to 170 °C.

`CC1(C)CCC(C)(C)c2cc(Sc3ccc(C(=O)O)cc3)ccc21` displayed a melting point of 187 to 188 °C.

Regarding `O=[N+]([O-])c1ccc(Cl)c(NC(=S)NCCO)c1`, the melting point is 158 °C.

For the compound `CCCN1CCN(c2nc3ccc(N=CN(C)C)cc3nc2N2CCN(CCC)CC2)CC1`, the melting point fell in the range of 95.5 to 98 °C.

Take `COc1ccc(N2CCN(c3ccc(Nc4nnc(C)s4)cc3)CC2)cc1`: the melting point amounted to 277 °C.

With `OCC1OC(n2cnc3c(NCCc4csc5ccc(Cl)cc45)ncnc32)C(O)C1O` (stereo unspecified), the melting point was 167 to 169 °C.

`CCCc1ccc(-c2ccc(-c3ccc(CC)cc3)cc2F)s1`: the melting point is 41 °C.

`CC(O)c1ccc2cc(S(N)(=O)=O)sc2c1` (stereo unspecified) gave a melting point of 134 to 135 °C.

`NC(=O)CON=C(c1ccc(Cl)cc1)c1ccc(Cl)cc1` had a melting point of 141 to 142 °C.

As to `N#CC1=C(c2cccs2)Nc2n[nH]cc2C1c1ccccc1[N+](=O)[O-]` (stereo unspecified), the melting point is 165 °C.

Compound `O=C(C(Cl)=Cn1ccnc1)c1ccc(Cl)cc1Cl` registered a melting point of 149 to 151 °C.

Compound `CC(C)NCC(O)COc1ccc2c(=O)cc(-c3ccc(OCc4ccccc4)c(OCc4ccccc4)c3)oc2c1` (stereo unspecified) had a melting point of 177 to 179 °C.

For the compound `Cc1cc(C)c(Nc2nc(C)ncc2S(=O)(=O)c2ccc(OCc3ccccc3)cc2)c(C)c1`, the melting point lay in the range of 166 to 168 °C.

The compound `CCCCc1cc2cc(NC(C)=O)ccc2o1` came in with a melting point of 71 to 73 °C.

With `Cc1[nH]c2ccccc2c1CSCCN1CC=C(c2ccccc2)CC1`, the melting point came to 182 °C.

Regarding `O=C(Nc1ccccc1)Nc1nc(C(O)CO)cs1` (stereo unspecified), the melting point is 175 to 178 °C.

As for `CCCCCCCCNC(=O)[C@@H]1C[C@H]1c1ccc(NC(=O)/C=C\C(=O)O)cc1` (relative stereo), the melting point was in the range of 178 to 180 °C.

`CC(=O)c1ccc(OCCCN2CCC(c3nsc4cc(F)ccc34)CC2)c(O)c1` returned a melting point of 135 to 137 °C.

For the compound `Clc1ccc2c(NCc3ccccc3)c3cccn3nc2c1`, the melting point lay within 184 to 186 °C.

Compound `Cc1cccc2nc(CSc3ncnc4[nH]cnc34)n(-c3ccccc3F)c(=O)c12` had a melting point of 152 °C.

For `Nc1c(Cl)cc(-c2nn(C3CCN(Cc4ccc(C(F)(F)F)cc4)CC3)c(=O)o2)c2c1OCCO2`, the melting point was 198 °C.

In the case of `CC(=O)N(C)CC#CCn1ccnc1`, the melting point lay in the range of 113 to 115 °C.

For `CC(C)(OCc1cc2nc(C(F)(F)F)ccc2n1S(=O)(=O)c1ccccc1)C(=O)O`, the melting point was 122 to 125 °C.

Take `CCCC1=NN(c2ccc(C(=O)O)cc2)C(=O)C1=CNc1ccccc1CC`: the melting point is 254 °C.

In the case of `O=C(NCCc1ccccc1)Nc1ccc([N+](=O)[O-])cc1O`, the melting point amounted to 189 °C.

On to `O=C(Nc1ccccc1)N1CCc2c(cnc3[nH]nc(Br)c23)C1`, for which the melting point was 249 to 250 °C.

Regarding `COc1ccc(F)c(C(N)=O)c1F`, the melting point lay within 167 to 169 °C.

`O=[N+]([O-])c1cc(C(F)(F)F)c(Cl)c([N+](=O)[O-])c1Nc1ncc(Cl)cc1Cl` displayed a melting point of 64 to 65 °C.

As for `Fc1ccc(-c2nc(S)nc(-c3ccccn3)n2)cc1`, the melting point was > 270 °C.

Turning to `COc1ccc(N=Nc2ccc(O)c(C(=O)Nc3ccc4[nH]nnc4c3)c2)cc1`, the melting point was 275 to 276 °C.

For `CCCCc1nc2cccnc2n1-c1ccc(OCc2ccc(OC)c(OC3CC4CCC3C4)c2)cc1` (stereo unspecified), the melting point was 130 to 132 °C.

With `CCOC(=O)c1ccc(NCCCCc2cccs2)cc1`, the melting point fell in the range of 63 to 65 °C.

For the compound `C=CCn1c(=O)c2cc(C(=O)O)cn2c2ccccc21`, the melting point lay within 306 to 308 °C.

As for `CCCCn1c(=O)c2c(ncn2S(=O)(=O)Cc2ccccc2)n(CCCC)c1=O`, the melting point fell in the range of 117 to 118 °C.

A word on the melting point: it is the temperature, or range, at which the solid turns liquid.

(Values after a melting point compilation (Tetko et al.; mined from patent text by program, amines drawn as free bases though some values may be those of a salt).)
